# Measurements: article PMC6001238, “Iterative Chemical Engineering of Vancomycin Leads to Novel Vancomycin Analogs With a High in Vitro Therapeutic Index” (Frontiers in Microbiology, 2018)
# Read-outs that look alike come from different tables or passages of the source.
# Experiments:
# [1] = test system: VE 149 (VanB); assay: MIC, VanB-type VRE strain VE 149; assay type: cell-based, Enterococcus; settings: VE 149, VanB; read-out: MIC
# Outline: (§1)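 Assayed by broth microdilution under CLSI antimicrobial testing rules. One case paired the analog or control drug with vancomycin at a 10 μM final concentration; water and inoculum-free broth were controls.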
# [2] = test system: VE 82 (VanC1); assay: MIC, VanC1-type VRE strain VE 82; assay type: cell-based, Enterococcus gallinarum; settings: VE 82, VanC1; read-out: MIC
# Outline: as §1
# [3] = test system: L1210, CEM and HeLa cell lines; assay: Cytostatic activity, average or summary over L1210, CEM and HeLa; assay type: cell-based
# Outline: (§2)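 Readout: Coulter cell number after drug exposure at 37°C. Durations differ by line (L1210 2 days; CEM 3 days; HeLa 4 days). Stock suspension 300,000–500,000 cells/mL, diluted by mixing with compound. Endpoint: IC50 vs negative control.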
# [4] = test system: VE 148 (VanB); assay: MIC, VanB-type VRE strain VE 148; assay type: cell-based, Enterococcus; settings: VE 148, VanB; read-out: MIC
# Outline: as §1
# [5] = test system: MRSA KS89; assay: MIC, broth microdilution, MRSA KS89; assay type: cell-based, Staphylococcus aureus
# Outline: as §1
# [6] = test system: S. aureus VSSA (ATCC 6538); assay: MIC, broth microdilution, vancomycin-sensitive S. aureus (VSSA/MSSA, ATCC 6538); assay type: cell-based, Staphylococcus aureus
# Outline: as §1
# [7] = test system: E. faecalis VRE 53; assay: MIC, broth microdilution, vancomycin-resistant E. faecalis VRE 53 (VanA); assay type: cell-based, Enterococcus faecalis
# Outline: as §1
# [8] = test system: human T-lymphocyte (CEM) cells; assay: Cytostatic activity, CEM cell proliferation; assay type: cell-based; settings: mean ± SD of three experiments; highest concentration tested 250 µM; 3 days; read-out: Toxicity (IC50) CEM
# Outline: as §2
# [9] = test system: 24 clinical MRSA isolates; assay: MIC against a set of 24 clinical MRSA isolates (range, MIC50, TI); assay type: cell-based, Staphylococcus aureus
# Outline: as §1
# [10] = test system: MRSA; assay: Minimum bactericidal concentration against MRSA; assay type: cell-based, Staphylococcus aureus
# Experimental: Plates were incubated overnight at 37°C and colony growth was inspected.
# [11] = test system: Clostridium difficile AIU ribotype 027; assay: MIC, plate drop assay, C. difficile AIU ribotype 027; assay type: cell-based; settings: for MIC-fold improvement vs. vancomycin: C. difficile AIU ribotype 027
# Outline: (§3)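 Twofold dilution series of test compounds were spotted onto C. difficile lawns in 0.4% BHI agar containing added calcium and magnesium salts. After overnight anaerobic incubation at 37°C, growth inhibition was scored by spot clearing; triplicate runs, ultrapure water negative control.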
# [12] = test system: human cervix carcinoma (HeLa) cells; assay: Cytostatic activity, HeLa cell proliferation; assay type: cell-based; settings: mean ± SD of three experiments; highest concentration tested 250 µM; 4 days; read-out: Toxicity (IC50) HeLa
# Outline: as §2
# [13] = test system: E. faecalis VRE 37; assay: MIC, broth microdilution, vancomycin-resistant E. faecalis VRE 37 (VanA); assay type: cell-based, Enterococcus faecalis
# Outline: as §1
# [14] = test system: MRSA KS1; assay: MIC, broth microdilution, MRSA KS1; assay type: cell-based, Staphylococcus aureus
# Outline: as §1
# [15] = test system: Clostridium difficile ATJ ribotype 014/20; assay: MIC, plate drop assay, C. difficile ATJ ribotype 014/20; assay type: cell-based; settings: for MIC-fold improvement vs. vancomycin: C. difficile ATJ ribotype 014/20
# Outline: as §3
# [16] = test system: VE 150 (VanB); assay: MIC, VanB-type VRE strain VE 150; assay type: cell-based, Enterococcus; settings: VE 150, VanB; read-out: MIC
# Outline: as §1
# [17] = test system: Murine leukemia (L1210) cells; assay: Cytostatic activity, L1210 cell proliferation; assay type: cell-based; settings: mean ± SD of three experiments; highest concentration tested 250 µM; 2 days; read-out: Toxicity (IC50) L1210
# Outline: as §2
# [18] = test system: S. aureus VRSA; assay: MIC, broth microdilution, vancomycin-resistant S. aureus (VRSA); assay type: cell-based, Staphylococcus aureus
# Outline: as §1
# [19] = test system: S. aureus VISA/HIP5827; assay: MIC, broth microdilution, vancomycin-intermediate S. aureus VISA HIP5827; assay type: cell-based, Staphylococcus aureus
# Outline: as §1
# [20] = test system: E. faecalis VSE 1; assay: MIC, broth microdilution, vancomycin-sensitive E. faecalis (VSE 1); assay type: cell-based, Enterococcus faecalis
# Outline: as §1
# [21] = test system: VE 157 (VanB); assay: MIC, VanB-type VRE strain VE 157; assay type: cell-based, Enterococcus; settings: VE 157, VanB; read-out: MIC
# Outline: as §1
# [22] = test system: VE 152 (VanB); assay: MIC, VanB-type VRE strain VE 152; assay type: cell-based, Enterococcus; settings: VE 152, VanB; read-out: MIC
# Outline: as §1
# [23] = test system: MRSA KS2; assay: MIC, broth microdilution, MRSA KS2; assay type: cell-based, Staphylococcus aureus
# Outline: as §1
# [24] = test system: MRSA KS6; assay: MIC, broth microdilution, MRSA KS6; assay type: cell-based, Staphylococcus aureus
# Outline: as §1
# [25] = test system: E. faecalis VRE 6; assay: MIC, broth microdilution, vancomycin-resistant E. faecalis VRE 6 (VanA); assay type: cell-based, Enterococcus faecalis
# Outline: as §1
# [26] = test system: E. faecalis VRE 29; assay: MIC, broth microdilution, vancomycin-resistant E. faecalis VRE 29 (VanA); assay type: cell-based, Enterococcus faecalis
# Outline: as §1
# [27] = test system: 33 clinical VRE isolates; assay: MIC against a set of 33 clinical VRE isolates (range, MIC50, TI); assay type: cell-based, Enterococcus faecalis
# Outline: as §1
smiles,measurement,setting,value
CNC(CC(C)C)C(=O)NC1C(=O)NC(CC(N)=O)C(=O)NC2C(=O)NC3C(=O)NC(C(=O)NC(C(=O)NCCCNC(=O)c4ccc5cc(NS(=O)(=O)c6ccc(C(C)C)cc6)ccc5c4)c4cc(O)cc(O)c4-c4cc3ccc4O)C(O)c3ccc(c(Cl)c3)Oc3cc2cc(c3OC2OC(CO)C(O)C(O)C2OC2CC(C)(N)C(O)C(C)O2)Oc2ccc(cc2Cl)C1O (stereo not drawn) [Vanc-66],MIC,[1],0.78 µM
same,MIC,[2],0.78 µM
same,IC50,"[3]; average IC50 used for TI in Table S5, >250 entered as 250, read-out: IC50",190 µM
same,IC50,"[3]; average of L1210, CEM and HeLa, read-out: Toxicity (IC50) Average",190 µM
same,MIC,[4],1.56 µM
same,MIC-fold improvement vs. vancomycin,"[5]; MRSA KS8, ratio of MIC of vancomycin and MIC of analogue",2
same,MIC,"[5]; Staphylococcus aureus MRSA KS8, read-out: MIC",0.39 µM
same,MIC,"[6]; Staphylococcus aureus VSSA, read-out: MIC",0.78 µM
same,MIC-fold improvement vs. vancomycin,"[6]; VSSA, ratio of MIC of vancomycin and MIC of analogue",1
same,MIC,"[7]; Enterococcus faecalis VRE 53 (vancomycin-resistant), read-out: MIC",25 µM
same,MIC-fold improvement vs. vancomycin,"[7]; VRE 53, ratio of MIC of vancomycin and MIC of analogue",16
same,IC50,[8],243 ± 10 µM
same,MIC Range,[9]; 24 clinical MRSA isolates,0.20 to 3.13 µM
same,TI (IC50/MIC50),"[9]; in vitro therapeutic index, MRSA",238
same,MIC50,"[9]; median MIC, 24 clinical MRSA isolates, read-out: MIC50",0.78 µM
same,MBC relative to MIC,[10],MBC equaling their MIC values
same,MIC-fold improvement vs. vancomycin,[11],≤ 58
same,MIC,"[11]; C. difficile AIU ribotype 027, plate drop assay",0.78 µM
same,MIC-fold improvement vs. vancomycin,[11]; listed as Vanc- 66,58
same,IC50,[12],78 ± 49 µM
same,MIC,"[13]; Enterococcus faecalis VRE 37 (vancomycin-resistant), read-out: MIC",3.13 µM
same,MIC-fold improvement vs. vancomycin,"[13]; VRE 37, ratio of MIC of vancomycin and MIC of analogue",128
same,MIC-fold improvement vs. vancomycin,"[14]; MRSA KS1, ratio of MIC of vancomycin and MIC of analogue",1
same,MIC,"[14]; Staphylococcus aureus MRSA KS1, read-out: MIC",0.78 µM
same,MIC-fold improvement vs. vancomycin,[15],up to 45
same,MIC,"[15]; C. difficile ATJ ribotype 014/20, plate drop assay",0.78 µM
same,MIC-fold improvement vs. vancomycin,[15]; listed as Vanc- 66,45
same,MIC,[16],0.78 µM
same,IC50,[17],> 250 µM
same,MIC,"[18]; Staphylococcus aureus VRSA, read-out: MIC",0.39 µM
same,MIC-fold improvement vs. vancomycin,"[18]; VRSA, ratio of MIC of vancomycin and MIC of analogue",256
same,MIC,"[19]; Staphylococcus aureus VISA/HIP5827, read-out: MIC",0.78 µM
same,MIC-fold improvement vs. vancomycin,"[19]; VISA/HIP5827, ratio of MIC of vancomycin and MIC of analogue",8
same,MIC,"[20]; Enterococcus faecalis VSE 1 (vancomycin-sensitive), read-out: MIC",0.39 µM
same,MIC-fold improvement vs. vancomycin,"[20]; VSE 1, ratio of MIC of vancomycin and MIC of analogue",4
same,MIC,[21],0.78 µM
same,MIC,[22],0.78 µM
same,MIC-fold improvement vs. vancomycin,"[23]; MRSA KS2, ratio of MIC of vancomycin and MIC of analogue",2
same,MIC,"[23]; Staphylococcus aureus MRSA KS2, read-out: MIC",0.39 µM
same,MIC-fold improvement vs. vancomycin,"[24]; MRSA KS6, ratio of MIC of vancomycin and MIC of analogue",4
same,MIC,"[24]; Staphylococcus aureus MRSA KS6, read-out: MIC",0.20 µM
same,MIC,"[25]; Enterococcus faecalis VRE 6 (vancomycin-resistant), read-out: MIC",1.56 µM
same,MIC-fold improvement vs. vancomycin,"[25]; VRE 6, ratio of MIC of vancomycin and MIC of analogue",128
same,MIC,"[26]; Enterococcus faecalis VRE 29 (vancomycin-resistant), read-out: MIC",3.13 µM
same,MIC-fold improvement vs. vancomycin,"[26]; VRE 29, ratio of MIC of vancomycin and MIC of analogue",128
same,MIC Range,[27]; 33 clinical VRE isolates,1.56 to 12.5 µM
same,TI (IC50/MIC50),"[27]; in vitro therapeutic index, VRE",61
same,MIC50,"[27]; median MIC, 33 clinical VRE isolates, read-out: MIC50",3.13 µM
